Measured values taken from the supplement of paper PMC6045584.
± gives the standard deviation of the averaged measurements.

Each test system was assayed with Cc1ccc(-c2cc(C(F)(F)F)nn2-c2ccc(S(N)(=O)=O)cc2)cc1 [CELECOXIB] (assay: surviving fraction relative to DMSO-only wells; higher = less growth inhibition). Details: 500 nM; exposure time: 5 days.
How it was run: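 Lines were retained only if, across three screens, replicate Pearson r was >0.7 and median Z' was >0.3. Viability was measured as CellTiter-Glo luminescence and reported as surviving fraction relative to the median of DMSO-only wells. Readings followed 10 minutes at room temperature, after log-phase tumour cells seeded at 250–500 per well in 384-well plates had been exposed, from 24 hours after seeding, continuously for five days to inhibitors at 0.5, 1, 5, 10, 50, 100, 500 and 1000 nM.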

Test System	surviving fraction
JIMT1 BREAST	1.08 ± 0.062
LM7 BONE	0.944 ± 0.044
LNCAP PROSTATE	0.885 ± 0.057
MDAMB134 BREAST	0.984 ± 0.095
MDAMB157 BREAST	0.984 ± 0.025
MDAMB231 BREAST	1.04 ± 0.03
MDAMB361 BREAST	0.909 ± 0.091
MDAMB436 BREAST	0.992 ± 0.076
MDAMB468 BREAST	1.22 ± 0.046
MFM223 BREAST	1.05 ± 0.11
MG63 BONE	1.1 ± 0.032
MHM BONE	1.009 ± 0.009
NCIH441 LUNG	1.06 ± 0.14
NOS1 BONE	1.12 ± 0.11
NY BONE	1.01 ± 0.021
OS25HAL BONE	1.15 ± 0.08
OSHN BONE	1.15 ± 0.023
RDES SOFT TISSUE	1.17 ± 0.14
SCC47 HEADNECK	1.1 ± 0.054
SCC90 HEADNECK	0.93 ± 0.048

Test System	surviving fraction
SG27 HEADNECK	1.12 ± 0.15
SG28 HEADNECK	1.16 ± 0.027
SG31 HEADNECK	1.63 ± 0.2
SG32 HEADNECK	1.64 ± 0.21
SG43 HEADNECK	1.04 ± 0.035
SIHA CERVIX	1.07 ± 0.067
SJSA1 BONE	1.65 ± 0.039
SKBR3 BREAST	0.996 ± 0.17
SNU475 LIVER	1.06 ± 0.03
SUM44 BREAST	1.35 ± 0.5
SUM149.B1*.S BREAST	1.12 ± 0.067
SUM159 BREAST	1.07 ± 0.021
SYO1 SYNOVIAL	0.975 ± 0.07
T47D BREAST	1.11 ± 0.014
U2OS BONE	1.01 ± 0.016
VCAP PROSTATE	1.07 ± 0.029
VP229 BREAST	1.25 ± 0.076
YAMATO SYNOVIAL	1.39 ± 0.094
ZR751 BREAST	1.06 ± 0.026

Same assay, conditions: 1000 nM; exposure time: 5 days

Test System	surviving fraction
JIMT1 BREAST	1.07 ± 0.024
LM7 BONE	1.02 ± 0.068
LNCAP PROSTATE	0.94 ± 0.065
MDAMB134 BREAST	0.978 ± 0.085
MDAMB157 BREAST	0.945 ± 0.07
MDAMB231 BREAST	1.02 ± 0.033
MDAMB361 BREAST	0.968 ± 0.17
MDAMB436 BREAST	0.992 ± 0.11
MDAMB468 BREAST	1.2 ± 0.098
MFM223 BREAST	1.03 ± 0.017
MG63 BONE	1.06 ± 0.044
MHM BONE	1.02 ± 0.028
NCIH441 LUNG	1.1 ± 0.19
NOS1 BONE	1.16 ± 0.075
NY BONE	1.01 ± 0.053
OS25HAL BONE	1.08 ± 0.051
OSHN BONE	1.11 ± 0.015
RDES SOFT TISSUE	1.15 ± 0.045
SCC47 HEADNECK	1.11 ± 0.033
SCC90 HEADNECK	1.01 ± 0.15

Test System	surviving fraction
SG27 HEADNECK	1.21 ± 0.081
SG28 HEADNECK	1.29 ± 0.059
SG31 HEADNECK	1.52 ± 0.15
SG32 HEADNECK	1.19 ± 0.062
SG43 HEADNECK	1.08 ± 0.08
SIHA CERVIX	1.05 ± 0.064
SJSA1 BONE	1.85 ± 0.11
SKBR3 BREAST	1.08 ± 0.063
SNU475 LIVER	1.11 ± 0.026
SUM44 BREAST	1.37 ± 0.42
SUM149.B1*.S BREAST	1.2 ± 0.029
SUM159 BREAST	1.09 ± 0.017
SYO1 SYNOVIAL	1.04 ± 0.061
T47D BREAST	1.13 ± 0.012
U2OS BONE	1 ± 0.043
VCAP PROSTATE	1.05 ± 0.11
VP229 BREAST	1.4 ± 0.049
YAMATO SYNOVIAL	1.36 ± 0.21
ZR751 BREAST	1.04 ± 0.19
